Experimental data reported in patent US5112382A, “Halopropargyl compounds, compositions, uses and processes of preparation” (Rohm and Haas Company, priority 1990, dated 1992).
Converted amounts (≈) assume the structure as drawn. Where two headings read alike, the source gives them in different places.

What was measured:
Cochliobolus sativus = test: In-vitro plant fungicide test, HEL; format: cell-based; conditions: Bipolaris sorokiniana, read-out: % Control; for inhibition of growth at 50 ppm: rate 50 PPM
[1] = test system: Erysiphe graminis (f. sp. tritici); test: whole plant or invertebrate; format: in vivo; conditions: Blumeria graminis
Rhizoctonia solani = test: In-vitro plant fungicide test, RHI; format: cell-based; conditions: read-out: % Control; for inhibition of growth at 50 ppm: rate 50 PPM
Xanthomonas campestris = test: In-vitro plant fungicide test, XAN; format: cell-based; conditions: read-out: % Control
Botrytis cinerea = test: In-vitro plant fungicide test, BOC; conditions: read-out: % Control
Aureobasidium pullulans = test: MIC, broth two-fold serial dilution test, Apul; format: cell-based; conditions: read-out: Minimum Inhibitory Concentration (MIC)
Procedure: (§1) A minimum inhibitory concentration (MIC) value is obtained using a broth, two-fold serial dilution test performed as follows: […] A volume of the stock solution is dispensed into culture media to give an initial starting test concentration of 500 ppm compound. The test is carried out by adding and equal volume of broth to each vessel in the dilution series, except for the first vessel. The first vessel contains twice the volume of broth plus the initial concentration of test compound. One half of the broth from the first vessel is transferred to the second vessel. After being mixed, one half the resulting volume is removed from the second vessel and transferred to the third vessel. The entire cycle is repeated sufficiently to give a series of concentrations amounting to 500, 250, 125, 63, 31, 16, 8, and 4 ppm (or 100, 50, 25, 12.5, 6.2, 3.1, 1.6, and 0.8), respectively. Each vessel is then inoculated with a cell suspension of the appropriate test organism. Bacteria are grown in both and fungi on agar slats for a time and at a temperature appropriate to the species being tested. At the end of the growth period, the broth is vortexed to disperse the cells. In the case of fungi, the pores are harvested by pipetting water onto the slant and dislodging the spores with a sterile loop. The cell/spore suspension is standardized by controlling incubation time, temperature, and the volume of the diluent. The suspension is then used to inoculate the vessels containing the broth compound. The vessels are then incubated at the appropriate temperature. After the incubation, the vessels are examined for growth/no growth. The minimum inhibitory concentration (MIC) is defined as the lowest concentration of compound that results in complete inhibition of growth of the test organism.

Septoria nodorum = test: In-vitro plant fungicide test, SEP; format: cell-based; conditions: Parastagonospora nodorum, rate 50 PPM, read-out: % Control
Piricularia oryzae [2] = test: microbe, parasite or virus in culture; format: cell-based; conditions: read-out: % Control
Piricularia oryzae [3] = test: whole plant or invertebrate; format: in vivo; conditions: Pyricularia oryzae, 192 h, read-out: % Control
Aspergillus niger = test: MIC, broth two-fold serial dilution test, Anig; format: cell-based; conditions: read-out: Minimum Inhibitory Concentration (MIC)
Procedure: as §1

Escherichia coli = test: MIC, broth two-fold serial dilution test, Ecol; format: cell-based; conditions: read-out: Minimum Inhibitory Concentration (MIC)
Procedure: as §1

[4] = test system: Septoria glume blotch of wheat; test: whole plant or invertebrate; format: in vivo; conditions: Triticum aestivum
Pseudomonas fluorescens = test: MIC, broth two-fold serial dilution test, Psfl; format: cell-based; conditions: read-out: Minimum Inhibitory Concentration (MIC)
Procedure: as §1

Phytophthora capsici = test: In-vitro plant fungicide test, PHY; format: cell-based; conditions: read-out: % Control; for inhibition of growth at 50 ppm: rate 50 PPM
Pythium ultimum = test: In-vitro plant fungicide test, PYU; format: cell-based; conditions: Globisporangium ultimum, read-out: % Control; for inhibition of growth at 50 ppm: rate 50 PPM
Staphylococcus aureus = test: MIC, broth two-fold serial dilution test, Saur; format: cell-based; conditions: read-out: Minimum Inhibitory Concentration (MIC)
Procedure: as §1

Fusarium roseum = test: microbe, parasite or virus in culture; conditions: Fusarium sambucinum, read-out: % Control
[5] = test system: Pseudoperonospora cubensis; test: whole plant or invertebrate; format: in vivo; conditions: in Cucumis sativus, 168 h
Phytophthora infestans = test: whole plant or invertebrate; format: in vivo; conditions: in Solanum lycopersicum, 96 h, read-out: % Control
Pseudomonas aerugenosa = test: MIC, broth two-fold serial dilution test, Psae; format: cell-based; conditions: read-out: Minimum Inhibitory Concentration (MIC)
Procedure: as §1

[6] = test system: Puccinia recondita (f. sp. tritici Races PKB and PLD); test: whole plant or invertebrate; format: in vivo; conditions: 240 h

SMILES	inhibition of growth at 50 ppm (Cochliobolus sativus) [%]	pest or weed control at 200 ppm [1] [%]	inhibition of growth at 50 ppm (Rhizoctonia solani) [%]	inhibition of growth at 50 ppm (Xanthomonas campestris; XAN, rate 50 PPM) [%]	inhibition of growth at 50 ppm (Botrytis cinerea) [%]	MIC (Aureobasidium pullulans) [µg/mL]	inhibition of growth at 50 ppm (Septoria nodorum) [%]	inhibition of growth at 50 ppm (Piricularia oryzae [2]) [%]	pest or weed control at 200 ppm (Piricularia oryzae [3]) [%]	MIC (Aspergillus niger) [µg/mL]	MIC (Escherichia coli) [µg/mL]	pest or weed control at 200 ppm [4] [%]	MIC (Pseudomonas fluorescens) [µg/mL]	inhibition of growth at 50 ppm (Phytophthora capsici) [%]	inhibition of growth at 50 ppm (Pythium ultimum) [%]	MIC (Staphylococcus aureus) [µg/mL]	inhibition of growth at 50 ppm (Fusarium roseum) [%]	pest or weed control at 200 ppm [5] [%]	pest or weed control at 200 ppm (Phytophthora infestans) [%]	MIC (Pseudomonas aerugenosa) [µg/mL]	other results
COC(=O)N(CC#CI)N=Cc1ccc(Cl)c(Cl)c1 [Compound 11, N'-Methoxycarbonyl-N'-3-iodopropargyl 3,4-dichlorobenzaldehyde hydrazone]	100	0	100	0	50	< 4	90	100	90	< 4	> 500	0	> 500	90	0	8 (≈ 19.5 µM)	100	95	80	> 500	
O=C(c1ccccc1)N(CC#CI)N=Cc1cccc([N+](=O)[O-])c1 [Compound 12, N'-Benzoyl-N'-3-iodopropargyl 3-nitrobenzaldehyde hydrazone]	0		95	0	0	100 (≈ 231 µM)	0	100		> 100	> 100		> 100	0	0	> 100	0			> 100	
COC(=O)N(CC#CI)N=Cc1ccccc1 [Compound 3, N'-Methoxycarbonyl-N'-3-iodopropargyl benzaldehyde hyrazone]	0	50	100	0	0	< 4	75	95	90	< 4	> 500		> 500	100	100	125 (≈ 365 µM)	100	99	80	250 (≈ 731 µM)	inhibition of growth at 25 ppm (Cochliobolus sativus; rate 25 PPM): 0%; inhibition of growth at 25 ppm (Rhizoctonia solani; rate 25 PPM): 100%; inhibition of growth at 25 ppm (Xanthomonas campestris; XAN, rate 25 PPM): 0%; inhibition of growth at 25 ppm (Botrytis cinerea): 0%; inhibition of growth at 25 ppm (Piricularia oryzae [2]): 0%; pest or weed control at 200 ppm [6]: 50%; inhibition of growth at 25 ppm (Phytophthora capsici; rate 25 PPM): 75%; inhibition of growth at 25 ppm (Pythium ultimum; rate 25 PPM): 75%; inhibition of growth at 25 ppm (Fusarium roseum): 75%
COC(=O)N(CC#CI)N=Cc1ccc([N+](=O)[O-])o1 [Compound 8, N'-Methoxycarbonyl-N'-3-iodopropargyl 5-nitro-2-furancarboxaldehyde hydrazone]	100	0	100		0	< 4	100	100	90	< 4	63 (≈ 167 µM)	0	250 (≈ 663 µM)		100	< 4	100	0	0	125 (≈ 331 µM)	inhibition of growth at 50 ppm (Xanthomonas campestris): 0%; pest or weed control at 200 ppm [6]: 0%
COC(=O)N(CC#CI)N=Cc1ccc(C#N)cc1 [Compound 9, N'-Methoxycarbonyl-N'-3-iodopropargyl 4-cyanobenzaldehyde hydrazone]	100	0	100	0	50		100	100	0	> 250	> 500	0	> 500	95	100	> 500	100	85	0	> 500	pest or weed control at 200 ppm [6]: 0%
